Test [1] relates to Aorta. The test can be described thus: Vasorelaxant activity against phenylephrine-induced contraction in Sprague-Dawley rat aorta. It counts as functional, tissue-based.
In test [2] the test system is Aorta. The test can be described thus: Vasorelaxant activity against phenylephrine-induced contraction in Sprague-Dawley rat aorta relative to phenylephrine. The class given is functional.

`CC(C)=CCc1c(O)cc(O)c2c1OC(c1cccc(Br)c1)CC2=O` (racemic) registered an EC50 in the test with Aorta [1] of 1.56 µM. The molecule also returned an Emax with Aorta [2] of 78.2%. For `COc1cc(-c2cc(=O)c3c(O)cc(O)c(CC=C(C)C)c3o2)ccc1O`, in the test on Aorta [1], the EC50 stood at 49.3 µM. The same molecule displayed an Emax in the test on Aorta [2] of 70.6%. In the test on Aorta [1], `COc1cc(-c2cc(=O)c3c(O)cc(O)c(CC=C(C)C)c3o2)cc(OC)c1OC` came in with an EC50 of 64.3 µM. Moreover, the Emax in the test with Aorta [2] came out at 90.1%.

Turning to `CC(C)=CCc1c(O)cc(O)c(C(=O)/C=C/c2ccc3c(c2)OCO3)c1O`, the EC50 with Aorta [1] stood at 4.21 µM. The molecule further displayed an Emax in the test on Aorta [2] of 90%. `CC(C)=CCc1c(O)cc(O)c2c(=O)cc(-c3cccc(O)c3)oc12`: the Emax in the test with Aorta [2] stood at 64.6%.

`CC(C)=CCc1c(O)cc(O)c(C(=O)/C=C/c2ccc(Cl)cc2)c1O` came in with an EC50 with Aorta [1] of 679 µM. This molecule also came in with an Emax with Aorta [2] of 64.4%.

In turn, `CC(C)=CCc1c(O)cc(O)c2c(=O)cc(-c3cccc(Br)c3)oc12` came in with an EC50 with Aorta [1] of 95.9 µM. In addition, the Emax in the test with Aorta [2] was 82.8%. Take `CC(C)=CCc1c(O)cc(O)c2c1OC(c1ccccc1)CC2=O` (racemic): the EC50 in the test with Aorta [1] came out at 5.79 µM. Besides, the Emax in the test with Aorta [2] was 122%. As to `COc1cc(C2CC(=O)c3c(O)cc(O)c(CC=C(C)C)c3O2)ccc1O` (racemic), the midpoint of the response in the test with Aorta [1], the EC50, lay at 10.1 µM. The Emax in the test with Aorta [2] was 95.8%. For `COc1cc(/C=C/C(=O)c2c(O)cc(O)c(CC=C(C)C)c2O)cc(OC)c1OC`, in the test with Aorta [2], the Emax amounted to 78.5%.

For `CC(C)=CCc1c(O)cc(O)c2c1OC(c1ccc3c(c1)OCO3)CC2=O` (racemic), a half-maximal response in the test with Aorta [1] (EC50) required 1.32 µM. Besides, in the test on Aorta [2], the Emax was 77.3%.

By EC50 is commonly meant the concentration at which the effect is half-maximal. The low end stands for an effect from little substance, the high end for a need for much substance. As a reminder, the Emax is the greatest response seen or fitted, relative to the assay's reference.
